# According to patent US20230089247A1, “NOVEL COMPOUNDS SUITABLE FOR THE TREATMENT OF DYSLIPIDEMIA” (ZYDUS LIFESCIENCES LIMITED, priority 2019, published 2023):
# Legend:
# High Fat Diet C57 Mice = experiment: LDL-C lowering activity in high fat diet C57 mice; type: in vivo; conditions: Mus musculus, po, 168 h; C57 mice on high fat diet; 30 mg/Kg orally once a day, 7 days treatment, blood on day 7; read-out: % Change Vs Vehicle Control in LDLc
# Experimental: LDL-C Lowering Activity—in High Fat Diet C57 Mice
# The in-vivo LDL-c lowering for test compound was tested in C57 mice which were kept on high fat diet for 4 weeks and the blood was collected by retro-orbital sinus puncture method under light ether anesthesia on day 0 (pretreatment). Animal are grouped based on LDL-c levels, after that 7 days treatment with vehicle or test compound orally at a dose of 30 mpk dose once a day was given. On completion of treatment on day 7 of the treatment the blood was collected for LDL-c and TC levels measurement.
# PCSK9 = PCSK9 (Homo sapiens, UniProt Q8NBP7); experiment: BODIPY-LDL uptake assay in HepG2 cells; type: cell-based; conditions: 5 μg/ml PCSK9, BODIPY-LDL
# Chain of PCSK9 (Q8NBP7 153-692): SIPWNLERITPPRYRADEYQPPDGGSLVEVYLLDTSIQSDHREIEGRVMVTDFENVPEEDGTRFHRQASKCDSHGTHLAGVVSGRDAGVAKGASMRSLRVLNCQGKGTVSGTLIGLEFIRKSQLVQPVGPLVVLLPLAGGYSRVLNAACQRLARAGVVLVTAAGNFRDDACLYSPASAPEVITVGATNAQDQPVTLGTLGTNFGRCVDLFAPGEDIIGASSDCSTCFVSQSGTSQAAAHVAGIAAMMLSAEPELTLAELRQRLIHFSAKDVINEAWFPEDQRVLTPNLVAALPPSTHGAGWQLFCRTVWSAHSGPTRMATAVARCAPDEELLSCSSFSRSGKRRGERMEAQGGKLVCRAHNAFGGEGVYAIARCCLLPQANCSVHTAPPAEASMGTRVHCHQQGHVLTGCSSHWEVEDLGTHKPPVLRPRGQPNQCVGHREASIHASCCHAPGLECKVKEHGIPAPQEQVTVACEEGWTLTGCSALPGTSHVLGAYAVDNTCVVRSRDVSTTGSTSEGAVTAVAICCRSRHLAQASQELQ
# Procedure, shortened: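 Compounds pre-incubated 60 min with 5 μg/ml PCSK9 (0.2% DMSO), then added to HepG2 cells for 16 h; 1 μg/ml BODIPY-LDL added in serum-free medium for 5 h. Fluorescence (Ex 485/Em 520 nm) normalized to protein; PCSK9-only wells = 0%, no-PCSK9 wells = 100% uptake, giving percent increase in LDL uptake.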
% increase in LDL Uptake (PCSK9; 1 μM test compound) [%],% increase in LDL Uptake (PCSK9; 10 μM test compound) [%],% increase in LDL Uptake (PCSK9; 30 μM test compound) [%],SMILES,change in vivo at 30 mg/kg (High Fat Diet C57 Mice) [%]
25,135,130,"O=C(c1ccc(C2(O)COC2)cc1)N1CCC(c2ccc(C(F)(F)F)cc2)CC1 [Example 1, (4-(3-hydroxyoxetan-3-yl)phenyl)(4-(4-(trifluoromethyl)phenyl)piperidin-1-yl)methanone]",-52 ± 4
13,86,172,"COC1(c2ccc(C(=O)N3CCC(c4ccc(C(F)(F)F)cc4)CC3)cc2)COC1 [Example 2, (4-(3-methoxyoxetan-3-yl)phenyl)(4-(4-(trifluoromethyl)phenyl)piperidin-1-yl)methanone]",-45 ± 5
0,106,179,"O=C(c1ccc(C2(O)COC2)cc1)N1CCN(c2ccc(C(F)(F)F)cc2)CC1 [Example 6, (4-(3-hydroxyoxetan-3-yl)phenyl)(4-(4-(trifluoromethyl)phenyl)piperazin-1-yl)methanone]",0.6 ± 9
20,137,21,"COC1(c2ccc(C(=O)N3CC4CN(c5ccc(C(F)(F)F)cn5)CC4C3)cc2)COC1 (stereo not drawn) [Example 209, (4-(3-methoxyoxetan-3-yl)phenyl)(5-(5-(trifluoromethyl)pyridin-2-yl)hexahydropyrrolo[3,4-c]pyrrol-2(1H)-yl)methanone]",–
0,107,0,"O=C(c1cccc(C2(O)COC2)c1)N1CC2CN(c3ccc(C(F)(F)F)cn3)CC2C1 (stereo not drawn) [Example 210, (3-(3-hydroxyoxetan-3-yl)phenyl)(5-(5-(trifluoromethyl)pyridin-2-yl)hexahydropyrrolo[3,4-c]pyrrol-2(1H)-yl)methanone]",–
8,4,48,"O=C(c1ccc(C2(O)COC2)cc1)N1CCC(c2ccc(C(F)(F)F)cn2)CC1 [Example 212, (4-(3-hydroxyoxetan-3-yl)phenyl)(4-(5-(trifluoromethyl)pyridin-2-yl)piperidin-1-yl)methanone]",–
0,0,37,"COC1(c2ccc(C(=O)N3CCC(c4ccc(C(F)(F)F)nc4)CC3)cc2)COC1 [Example 213, (4-(3-methoxyoxetan-3-yl)phenyl)(4-(6-(trifluoromethyl)pyridin-3-yl)piperidin-1-yl)methanone]",–
0,5,128,"O=C(c1ccc(C2(O)COC2)cc1)N1CCN(c2ccc(C(F)(F)F)nc2)CC1 [Example 217, (4-(3-hydroxyoxetan-3-yl)phenyl)(4-(6-(trifluoromethyl)pyridin-3-yl)piperazin-1-yl) methanone]",–
0,26,85,"COC1(c2ccc(C(=O)N3CCN(c4ccc(C(F)(F)F)cn4)CC3)cc2)COC1 [Example 218, (4-(3-methoxyoxetan-3-yl)phenyl)(4-(5-(trifluoromethyl)pyridin-2-yl)piperazin-1-yl)methanone]",–
4,41,15,"CCOC1(c2ccc(C(=O)N3CCN(c4ccc(C(F)(F)F)cn4)CC3)cc2)COC1 [Example 219, (4-(3-ethoxyoxetan-3-yl)phenyl)(4-(5-(trifluoromethyl)pyridin-2-yl)piperazin-1-yl)methanone]",–
0,28,66,"COC1(c2cccc(C(=O)N3CCN(c4ccc(C(F)(F)F)cn4)CC3)c2)COC1 [Example 221, (3-(3-methoxyoxetan-3-yl)phenyl)(4-(5-(trifluoromethyl)pyridin-2-yl)piperazin-1-yl)methanone]",–
